Literature values as cited in US20100233107A1, “MEDICATED TONING LOTION” (priority 2009, published 2010).

solubility in water: approximately 0.2 % by weight | volume of water in which one gram dissolves (one gram of salicylic acid): 460 mL
Compound: O=C(O)c1ccccc1O [salicylic acid]
